In this test the test system is C57BL/6J inbred strain female mice. As to the kind of experiment: Survival after 8 Gy whole body γ-irradiation, intraperitoneal dosing 4 hours before or after (Example 4). It is filed as in vivo. Particulars: 10 mg/kg 4 hr before Radiation 8 Gy. As for the experimental part:
β-lapachone is prepared at 10 mg/ml in 40% hydroxypropyl-beta-cyclodextrin (HPBCD).
C57BL/6J inbred strain female mice (4-5 weeks old) are used. Animals are maintained in a climate-controlled animal facility.
Animals are injected with different concentrations of β-lapachone (20 and 40 mg/kg body weight) intraperitoneally 4 hours before or after irradiation.
Whole body irradiation of animals with 8 Gy of γ-rays is carried out in air at room temperature in a gamma chamber (Gammacell 40 Exactor), at a dose-rate of 1.05 Gy/min. This radiation dose is within the range of equivalent human exposures predicted in many scenarios of radiologic or nuclear terrorist attack.
Mice are divided into the following groups (each Group comprises four mice receiving identical treatment):
Group II: Mice are injected with β-lapachone 20 mg/kg body weight 4 hours before radiation.
Group III: Mice are injected with β-lapachone 40 mg/kg body weight 4 hours before radiation.
Group IV: Mice are injected with β-lapachone 20 mg/kg body weight 4 hours after radiation.
Group V: Mice are injected with β-lapachone 40 mg/kg body weight 4 hours after radiation.
Group VI: Mice are injected with amifostine 10 mg/kg body weight 4 hours before radiation.
Animals are irradiated with 8 Gy at 1.05 Gy/min dose-rate. After irradiation mice are returned to their cage and observed on a regular basis. Exposure to γ-rays causes lethality in animals. Importantly, treatment with β-lapachone, especially at a level of 40 mg/kg prior to irradiation, diminishes the death rate.

With `NCCCNCCSP(=O)(O)O` [Amifostine, reference compound], the “Median survival time” value is recorded as 12 days. The “No. of animals surviving at 20 days post-irradiation” value (4 animals) is 0. In addition, the “Death rate (%)” value (20 days) is listed as 100%. In addition, under “listed as amifostine”, the “Median survival time in days” value is listed as “little or no effect”.

The values above are taken from patent US7649013B2, “Methods of protecting against radiation injury” (priority 2003, dated 2010).
